The source of these data is US20120039813A1, “INTRINSICALLY COLORED, LUMINESCENT SILK FIBROIN AND A METHOD OF PRODUCING THE SAME” (priority 2009, published 2012).

In series [1] the test system is silkworm. Put plainly: Uptake of dyes into the silkworm and the silk fibroin after feeding dye-modified feed. The series is classed as in vivo. As to conditions: for Uptake of dye in worm / Uptake of dye in fibroin: dye fed to silkworm in modified feed; for Uptake of dye in fibroin: silk fibroin. From the text: The modified feed was then fed to silkworms starting on the third day of fifth instar. The silk gland, obtained through dissection, also absorbed the dye and became colored. At day 8-9 of fifth instar, the silkworms started producing intrinsically colored and fluorescent silk cocoon as shown in FIG. 3. […]

Series [2] is described as follows: n-octanol/water partition coefficient (log P) of dyes. From the text: (§1) FIG. 12 depicts the quantity of various dyes in sericin and fibroin per gram of raw silk as a function of their n-octanol/water partition coefficient (log p).
(§2) FIG. 12 summarizes the amounts of various dyes distributed in silk's fibroin and sericin as a function of log P, a measure of hydrophobicity.

The subject of series [3] is silkworm. Put plainly: Quantity of various dyes in sericin, fibroin and gland content of dye-fed silkworms.
From the text: as §1, §2

Where [4] appears, read: other dye molecules apart from the rhodamine series, feeding method.

“Also recorded” adds a separate entry of the source.

Regarding `O=S1(=O)OC(c2cc(Br)c(O)c(Br)c2)(c2cc(Br)c(O)c(Br)c2)c2ccccc21` [Bromophenol blue], in series [1] (setting [4]), the “Uptake into silk gland and silk” value is “did not display significant uptake”.

With rhodamine 116, the “log P (n-octanol/water partition coefficient)” value in series [2] (measure of hydrophobicity) is 0.64.

In the case of `O=S(=O)([O-])c1cc(S(=O)(=O)O)ccc1C1=c2cc3c4c(c2Oc2c1cc1c5c2CCCN5CCC1)CCC[N+]=4CCC3` [sulforhodamine 101], in series [2], the “log P (n-octanol/water partition coefficient)” value is recorded as −0.69. Further, in series [3] (in vivo), the “Amount of dye present in silk (sericin and fibroin) and silkworm” value (from here on “Amount of dye present in silk”) is “negligible presence in silk and in silkworm”.

In the case of `CCN(CC)c1ccc2c(-c3ccccc3C(=O)O)c3ccc(=[N+](CC)CC)cc-3oc2c1.[Cl-]` [Rhodamine B, rhodamine B], the “log P (n-octanol/water partition coefficient)” value in series [2] (measure of hydrophobicity) was determined as 2.43. In series [1], the “Uptake of dye in worm” value is reported as “yes” and the “Uptake of dye in fibroin” value is on record as “yes”. Besides, in series [3] (FIG. 12, result in words), the “Amount of dye present in silk” value is given as “much higher concentration”; the “Distribution of dye between silk sericin and fibroin” value is listed as “majority residing in silk fibroin rather than sericin”. In addition, the “Concentration in gland content” value in series [3] (in vivo) is approximately 1000 µM.

`CN(C)c1ccc2cc3ccc(N(C)C)cc3nc2c1` [Acridine orange, acridine orange] showed a log partition coefficient (logP) in series [2] of 1.8. Besides, in series [1] (setting [4]), the “Uptake into silk gland and silk” value is reported as “efficient uptake”. Moreover, in series [3] (in vivo), the “Amount of dye present in silk” value is recorded as “very low concentration in silk”; the “Concentration in gland content” value was “very low”.

Regarding Alcian blue, in series [1] (in vivo), the “Uptake into silk gland and silk” value was “did not display significant uptake”.

Consider `O=C1OC2(c3ccc(O)cc3Oc3cc(O)ccc32)c2ccccc21` [Fluorescein, fluorescein], for which the logP in series [2] is -0.79. Also, in series [1] (setting [4]), the “Uptake into silk gland and silk” value is reported as “did not display significant uptake”. Moreover, the “Amount of dye present in silk” value in series [3] (in vivo) was “negligible presence in silk and in silkworm”.

Consider `O=C(O)c1ccccc1C1=c2cc3c4c(c2Oc2c1cc1c5c2CCCN5CCC1)CCC[N+]=4CCC3.[Cl-]` [Rhodamine 101, rhodamine 101], for which, in series [2], the “log P (n-octanol/water partition coefficient)” value was 2.19. Further, in series [1], the “Uptake of dye in worm” value is on record as “yes” and the “Uptake of dye in fibroin” value is recorded as “yes”. Besides, in series [3] (FIG. 12, result in words), the “Amount of dye present in silk” value is reported as “much higher concentration”; the “Distribution of dye between silk sericin and fibroin” value is reported as “majority residing in silk fibroin rather than sericin”.

`Cl.N=c1ccc2c(-c3ccccc3C(=O)O)c3ccc(N)cc3oc-2c1` [Rhodamine 110, rhodamine 110]: in series [2], the “log P (n-octanol/water partition coefficient)” value is 1.17. Also, the “Amount of dye present in silk” value in series [3] (FIG. 12, result in words) was “substantial amounts in both sericin and fibroin; also recorded: lower uptake”.

In the case of rhodamine 123, in series [1], the “Uptake of dye in worm” value is on record as “no” and the “Uptake of dye in fibroin” value is given as “no”.

Turning to `CCN(CC)c1ccc2c(c1)Oc1cc(N(CC)CC)ccc1C21OC(=O)c2ccccc21` [Rhodamine B base, rhodamine B base], in series [1], the “Uptake of dye in worm” value is “yes” and the “Uptake of dye in fibroin” value is “yes”.
